Assay results taken from patent US11135320B2, “Radioligands for pretargeted pet imaging and methods of their therapeutic use” (priority 2015, dated 2021).
Several values for one entry are separate records, joined by “and”; a condition that tells them apart may be missing. Identical values can stand only once.

Tested on: subcutaneous SW1222 xenografts (A33 antigen-expressing human colorectal carcinoma)
Assay: Pretargeted biodistribution with huA33-TCO and ^64Cu-tetrazine radioligand
Assay type: in vivo, athymic nude mice
Procedure: Female athymic nude mice bearing subcutaneous SW1222 (right shoulder) xenografts (100-150 mm^3, 18-21 days post-inoculation) were administered 100 μg (0.66 nmol) huA33-TCO (in 200 μL 0.9% sterile saline) via intravenous tail vein injection. […] The specific activity of the radiotracer was adjusted using cold ^natCu-Tz-SarAr such that the molar ratio of Tzinjected:huA^33injected=1:1. Animals (n=4 per group) were euthanized by CO2(g) asphyxiation at 1, 4, 12, and 24 h after injection. After asphyxiation, 13 tissues were removed, rinsed in water, dried in air for 5 min, weighed, and counted in a gamma counter calibrated for ^64Cu. Counts were converted into activity using a calibration curve generated from known standards. Count data were background- and decay-corrected to the time of injection, and the percent injected dose per gram (% ID/g) for each tissue sample was calculated by normalization to the total activity injected. Contents within the stomach, small intestine, and large intestine were not removed for the measurements.
Contents within the stomach, small intestine, and large intestine were not removed for the measurements. […] Zeglis, B. M. et al. “A pretargeted PET imaging strategy based on bioorthogonal Diels-Alder click chemistry.” Journal of Nuclear Medicine. 54, 1389-1396 (2013). ©2013 by the Society of Nuclear Medicine and Molecular Imaging, Inc.
Zeglis, B. M. et al. “A pretargeted PET imaging strategy based on bioorthogonal Diels-Alder click chemistry.” Journal of Nuclear Medicine. 54, 1389-1396 (2013). ©2013 by the Society of Nuclear Medicine and Molecular Imaging, Inc.
(§1) Female athymic nude mice bearing subcutaneous SW1222 (right shoulder) xenografts (100-150 mm^3, 18-21 days post-inoculation) were administered 100 μg (0.66 nmol) huA33-TCO (in 200 μL 0.9% sterile saline) via intravenous tail vein injection. After an accumulation interval of 48 h, the same mice were then administered ^64Cu-Tz-SarAr (300-350 μCi in 200 μL 0.9% sterile saline) via intravenous tail vein injection (t=0). The specific activity of the radiotracer was adjusted using cold ^natCu-Tz-SarAr such that the molar ratio of Tzinjected:huA^33injected=1:1. Animals (n=4 per group) were euthanized by CO2(g) asphyxiation at 1, 4, 12, and 24 h after injection. After asphyxiation, tissues were removed, rinsed in water, dried in air for 5 min, weighed, and counted in a gamma counter calibrated for ^64Cu. Counts were converted into activity using a calibration curve generated from known standards. Count data were background- and decay-corrected to the time of injection, and the percent injected dose per gram (% ID/g) for each tissue sample was calculated by normalization to the total activity injected. Contents within the stomach, small intestine, and large intestine were not removed for the measurements.
as §1, with “120” for “48”, “Contents within the stomach, small intestine, and large intestine were not removed for the measurements.” left out

[1] = 48 h accumulation interval, 12 h p.i.
[2] = 48 h accumulation interval, 24 h p.i.
[3] = 120 h accumulation interval, 1 h p.i.
[4] = 120 h accumulation interval, 4 h p.i.
[5] = 120 h accumulation interval, 12 h p.i.
[6] = 120 h accumulation interval, 24 h p.i.

Work on NC12CNCCNCC(NCc3ccc(CNC(=O)CCCC(=O)NCc4ccc(-c5nncnn5)cc4)cc3)(CNCCNC1)CNCCNC2.[64Cu+2] [^64Cu-Tz-SarAr] yielded a Blood activity concentration [1] of 1.81 ± 0.54 % ID/g, a Bone activity concentration [1] of 0.3 ± 0.07 % ID/g and a Heart activity concentration [1] of 0.88 ± 0.33 % ID/g. For the same compound, the Kidney activity concentration [1] was 2.04 ± 0.36 % ID/g, the “Large Intestine activity concentration” value [1] was 0.22 ± 0.08 % ID/g and the Liver activity concentration [1] was 1.08 ± 0.32 % ID/g. For the same compound, the Lung activity concentration [1] was 1.00 ± 0.18 % ID/g, the Muscle activity concentration [1] was 0.15 ± 0.02 % ID/g and the “Small Intestine activity concentration” value [1] was 0.3 ± 0.08 % ID/g. For the same compound, the Spleen activity concentration [1] was 0.56 ± 0.11 % ID/g, the Stomach activity concentration [1] was 0.12 ± 0.04 % ID/g and the Tumor activity concentration [1] was 4.94 ± 1.12 % ID/g. The “Tumor/Blood activity concentration ratio” value [1] was 2.72 ± 1.03, the “Tumor/Bone activity concentration ratio” value [1] was 16.24 ± 5.16 and the “Tumor/Heart activity concentration ratio” value [1] was 5.62 ± 2.47. For the same compound, the “Tumor/Kidney activity concentration ratio” value [1] was 2.42 ± 0.7, the “Tumor/Large Intestine activity concentration ratio” value [1] was 22.66 ± 10.19 and the “Tumor/Liver activity concentration ratio” value [1] was 4.58 ± 1.69. For the same compound, the “Tumor/Lung activity concentration ratio” value [1] was 4.94 ± 1.45, the “Tumor/Muscle activity concentration ratio” value [1] was 33.88 ± 9.31 and the “Tumor/Small Intestine activity concentration ratio” value [1] was 16.47 ± 5.62. The “Tumor/Spleen activity concentration ratio” value [1] was 8.75 ± 2.61, the “Tumor/Stomach activity concentration ratio” value [1] was 41.88 ± 18.35 and the Blood activity concentration [2] was 0.92 ± 0.31 % ID/g. It also gave a Bone activity concentration [2] of 0.18 ± 0.05 % ID/g, a Heart activity concentration [2] of 0.45 ± 0.08 % ID/g and a Kidney activity concentration [2] of 1.47 ± 0.43 % ID/g. For the same compound, the “Large Intestine activity concentration” value [2] was 0.16 ± 0.03 % ID/g, the Liver activity concentration [2] was 1.28 ± 0.33 % ID/g and the Lung activity concentration [2] was 1.05 ± 0.51 % ID/g. The Muscle activity concentration [2] was 0.11 ± 0.04 % ID/g, the “Small Intestine activity concentration” value [2] was 0.22 ± 0.07 % ID/g and the Spleen activity concentration [2] was 0.5 ± 0.1 % ID/g. The Stomach activity concentration [2] was 0.15 ± 0.03 % ID/g, the Tumor activity concentration [2] was 4.85 ± 0.67 % ID/g and the “Tumor/Blood activity concentration ratio” value [2] was 5.27±1.92. The “Tumor/Bone activity concentration ratio” value [2] was 26.55 ± 7.58, the “Tumor/Heart activity concentration ratio” value [2] was 10.9 ± 2.55 and the “Tumor/Kidney activity concentration ratio” value [2] was 3.31 ± 1.07. The “Tumor/Large Intestine activity concentration ratio” value [2] was 29.58 ± 6.11, the “Tumor/Liver activity concentration ratio” value [2] was 3.8 ± 1.11 and the “Tumor/Lung activity concentration ratio” value [2] was 4.61 ± 2.32. The “Tumor/Muscle activity concentration ratio” value [2] was 44.18 ± 17.61, the “Tumor/Small Intestine activity concentration ratio” value [2] was 21.72 ± 7.59 and the “Tumor/Spleen activity concentration ratio” value [2] was 9.8 ± 2.47. For the same compound, the “Tumor/Stomach activity concentration ratio” value [2] was 32.81 ± 8.37, the Blood activity concentration [3] was 1.39 ± 0.19 % ID/g and the Bone activity concentration [3] was 0.21 ± 0.03 % ID/g. For the same compound, the Heart activity concentration [3] was 0.52 ± 0.06 % ID/g, the Kidney activity concentration [3] was 1.80 ± 0.12 % ID/g and the “Large Intestine activity concentration” value [3] was 0.29 ± 0.16 % ID/g. The Liver activity concentration [3] was 1.65 ± 0.07 % ID/g, the Lung activity concentration [3] was 1.41 ± 0.21 % ID/g and the Muscle activity concentration [3] was 0.20 ± 0.03 % ID/g. For the same compound, the “Small Intestine activity concentration” value [3] was 0.34 ± 0.03 % ID/g, the Spleen activity concentration [3] was 0.60 ± 0.13 % ID/g and the Stomach activity concentration [3] was 0.32 ± 0.13 % ID/g. The Tumor activity concentration [3] was 3.61 ± 0.45 % ID/g, the “Tumor/Blood activity concentration ratio” value [3] was 2.61 ± 0.48 and the “Tumor/Bone activity concentration ratio” value [3] was 17.27 ± 3.03. For the same compound, the “Tumor/Heart activity concentration ratio” value [3] was 7.00 ± 1.22, the “Tumor/Kidney activity concentration ratio” value [3] was 2.01 ± 0.29 and the “Tumor/Large Intestine activity concentration ratio” value [3] was 12.39 ± 7.14. The “Tumor/Liver activity concentration ratio” value [3] was 2.19 ± 0.29, the “Tumor/Lung activity concentration ratio” value [3] was 2.55 ± 0.49 and the “Tumor/Muscle activity concentration ratio” value [3] was 18.41 ± 3.47. For the same compound, the “Tumor/Small Intestine activity concentration ratio” value [3] was 10.53 ± 1.58, the “Tumor/Spleen activity concentration ratio” value [3] was 6.02 ± 1.46 and the “Tumor/Stomach activity concentration ratio” value [3] was 11.37 ± 4.88. For the same compound, the Blood activity concentration [4] was 1.05±0.29 % ID/g, the Bone activity concentration [4] was 0.16 ± 0.04 % ID/g and the Heart activity concentration [4] was 0.43 ± 0.11 % ID/g. For the same compound, the Kidney activity concentration [4] was 2.10 ± 0.20 % ID/g, the “Large Intestine activity concentration” value [4] was 0.20 ± 0.13 % ID/g and the Liver activity concentration [4] was 1.16 ± 0.39 % ID/g. For the same compound, the Lung activity concentration [4] was 0.91 ± 0.22 % ID/g, the Muscle activity concentration [4] was 0.11 ± 0.05 % ID/g and the “Small Intestine activity concentration” value [4] was 0.22 ± 0.03 % ID/g. The Spleen activity concentration [4] was 0.50 ± 0.05 % ID/g, the Stomach activity concentration [4] was 0.25 ± 0.12 % ID/g and the Tumor activity concentration [4] was 3.6±0.7 % ID/g and 3.55 ± 0.74 % ID/g. For the same compound, the “Tumor/Blood activity concentration ratio” value [4] was 3.37 ± 1.16, the “Tumor/Bone activity concentration ratio” value [4] was 21.53 ± 7.14 and the “Tumor/Heart activity concentration ratio” value [4] was 8.24 ± 2.71. For the same compound, the “Tumor/Kidney activity concentration ratio” value [4] was 1.69 ± 0.39, the “Tumor/Large Intestine activity concentration ratio” value [4] was 17.82 ± 12.22 and the “Tumor/Liver activity concentration ratio” value [4] was 3.06 ± 1.2. The “Tumor/Lung activity concentration ratio” value [4] was 3.89 ± 1.23, the “Tumor/Muscle activity concentration ratio” value [4] was 32.58 ± 16.17 and the “Tumor/Small Intestine activity concentration ratio” value [4] was 16.22 ± 3.91. The “Tumor/Spleen activity concentration ratio” value [4] was 7.03 ± 1.64, the “Tumor/Stomach activity concentration ratio” value [4] was 14.04 ± 7.07 and the Blood activity concentration [5] was 0.44 ± 0.14 % ID/g. The Bone activity concentration [5] was 0.11 ± 0.04 % ID/g, the Heart activity concentration [5] was 0.34 ± 0.20 % ID/g and the Kidney activity concentration [5] was 2.11 ± 0.13 % ID/g. For the same compound, the “Large Intestine activity concentration” value [5] was 0.09 ± 0.03 % ID/g, the Liver activity concentration [5] was 0.96 ± 0.09 % ID/g and the Lung activity concentration [5] was 0.59 ± 0.27 % ID/g. The Muscle activity concentration [5] was 0.08 ± 0.04 % ID/g, the “Small Intestine activity concentration” value [5] was 0.15 ± 0.07 % ID/g and the Spleen activity concentration [5] was 0.34 ± 0.14 % ID/g. The Stomach activity concentration [5] was 0.09 ± 0.03 % ID/g, the Tumor activity concentration [5] was 3.29 ± 0.40 % ID/g and the “Tumor/Blood activity concentration ratio” value [5] was 7.46 ± 2.54. For the same compound, the “Tumor/Bone activity concentration ratio” value [5] was 29.07 ± 11.14, the “Tumor/Heart activity concentration ratio” value [5] was 9.56 ± 5.64 and the “Tumor/Kidney activity concentration ratio” value [5] was 1.56 ± 0.21. For the same compound, the “Tumor/Large Intestine activity concentration ratio” value [5] was 35.43 ± 12.17, the “Tumor/Liver activity concentration ratio” value [5] was 3.43 ± 0.52 and the “Tumor/Lung activity concentration ratio” value [5] was 5.55 ± 2.62. The “Tumor/Muscle activity concentration ratio” value [5] was 38.74 ± 20.11, the “Tumor/Small Intestine activity concentration ratio” value [5] was 21.47 ± 9.60 and the “Tumor/Spleen activity concentration ratio” value [5] was 9.63 ± 4.03. For the same compound, the “Tumor/Stomach activity concentration ratio” value [5] was 38.07 ± 12.42, the Blood activity concentration [6] was 0.75 ± 0.23 % ID/g and the Bone activity concentration [6] was 0.25 ± 0.08 % ID/g. The Heart activity concentration [6] was 0.40 ± 0.16 % ID/g, the Kidney activity concentration [6] was 1.90 ± 0.17 % ID/g and the “Large Intestine activity concentration” value [6] was 0.16 ± 0.04 % ID/g. For the same compound, the Liver activity concentration [6] was 1.06 ± 0.16 % ID/g, the Lung activity concentration [6] was 0.85 ± 0.29 % ID/g and the Muscle activity concentration [6] was 0.14 ± 0.05 % ID/g. The “Small Intestine activity concentration” value [6] was 0.17 ± 0.06 % ID/g, the Spleen activity concentration [6] was 0.69 ± 0.17 % ID/g and the Stomach activity concentration [6] was 0.15 ± 0.08 % ID/g. For the same compound, the Tumor activity concentration [6] was 4.34 ± 0.98 % ID/g, the “Tumor/Blood activity concentration ratio” value [6] was 5.74±2.17 and the “Tumor/Bone activity concentration ratio” value [6] was 17.16 ± 6.90. The “Tumor/Heart activity concentration ratio” value [6] was 10.76 ± 4.94, the “Tumor/Kidney activity concentration ratio” value [6] was 2.29 ± 0.56 and the “Tumor/Large Intestine activity concentration ratio” value [6] was 26.48 ± 8.29. The “Tumor/Liver activity concentration ratio” value [6] was 4.09 ± 1.13, the “Tumor/Lung activity concentration ratio” value [6] was 5.09 ± 2.06 and the “Tumor/Muscle activity concentration ratio” value [6] was 30.39 ± 11.94. The “Tumor/Small Intestine activity concentration ratio” value [6] was 25.34 ± 10.4, the “Tumor/Spleen activity concentration ratio” value [6] was 6.26 ± 2.09 and the “Tumor/Stomach activity concentration ratio” value [6] was 29.21 ± 17.97.
